Laboratory results as given in paper PMC9000469 (Molecules, 2022).
Where “and” joins values, the source holds several entries; their conditions need not be identical. Equal entries are not always repeated. Entries after “also recorded” stand apart in the source; their conditions may differ. Structures can show the parent of a compound that is named as a salt. Where two headings read alike, the source gives them in different places. Blank lines part the entries; values can stand above or below the molecule they belong to.

Columns and labels:
[1] = Permeability across the PermeaPad 96-well plate biomimetic barrier; type: in vitro ADME; settings: for Effect of medium pH (6.8 versus 7.4) on permeability across the PermeaPad barrier: Student t-test, p > 0.05; for Permeability across the PermeaPad barrier by passive diffusion (in words): pH 6.8 and 7.4; for Papp on the Permeapad membrane: pH not stated in the sentence (equals the pH 7.4 value of Figure 4)
Method: The […]® 96-well plate was purchased from InnoME GmbH ([…], Germany). The plate consists of a bottom plate, a screen plate with a lipid barrier and a lid. The surface area for permeation studying is 0.15 cm^2. The permeability tests across a biomimetic barrier of drug substances were performed from the bottom to the top compartment. The compounds were dissolved in PBS with pH 6.8 or 7.4. […] The permeation tests for all compounds were performed at room temperature (25 °C). HPLC methods were used to determine the concentration of the compound transported. The apparent permeability coefficient (Papp) was calculated according to the protocol described by di Cagno et al..

[2] = parameters: method as in PMID 25840123; settings: concentration 5 mM; cited from earlier work
[3] = Physicochemical properties of compounds (pKa, logP); settings: internal data
Excerpt: PA was obtained from Ethifarm (Ethifarm, Poznan, Poland). Reference substances CAF and NF were obtained from Sigma Aldrich (Merck Group, Darmstadt, Germany).

Caco-2 monolayer [4] = settings: previously published results, cited from earlier work
PEPT1 = tested on: PEPT1; parameters: method as in PMID 19519280; settings: cited from earlier work
Caco-2 cells = assay: MTT cytotoxicity assay in Caco-2 cells; settings: 0.0–2.0 mg/mL, 2 h exposure
Method: After leaving them overnight, different concentrations of analyzed substances in HBSS pH 7.4 were added.. Cells were exposed to the substances for 2 h (time of transport across monolayer) in an incubator under optimal culture conditions. After incubation, the solution was removed and the mixture of DMEM cell culture medium and MTT (5 mg/mL) was added. Cells were incubated for 2 h, and then the resulting formazan crystals were dissolved in DMSO. The absorbance was measured using an Elx-800 absorbance microplate reader (Biotek, Winooski, VT, USA) at wavelength 540 nm.

[5] = cited from earlier work
[6] = cited from earlier work; remark: listed apart in the source
PEPT2 = tested on: PEPT2; parameters: method as in PMID 19519280; settings: cited from earlier work
Caco-2 monolayer [7] = settings: for Papp across Caco-2 monolayer: basolateral to apical, 2 h, pH 7.4, 37 °C, mean ± SD, n = 3
Method: For the transport study, the Caco-2 cells were seeded at 4 × 10^5 cells/well on the permeable cell culture inserts with a 0.4 µm pore diameter (Millipore-Merck Group, Darmstadt, Germany) placed in 6-well plates. The cells were cultured for 22 days in the incubator under optimal culture conditions (37 °C, 5% CO2, and 95% air) to their spontaneity differentiating. The integrity of the monolayer was tested by measuring the Trans Epithelial Electrical Resistance (TEER) every 48 h using a Millicel ERS-2 Voltohmmeter (Millipore-Merck Group, Darmstadt, Germany). The cells’ monolayer with an average TEER value > 600 Ohm × cm^2 was considered to be suitable for permeability testing.
The permeability tests across the Caco-2 monolayer of substances were performed from basolateral to the apical compartment (B–A). Plates with cell culture inserts were incubated at 37 °C with shaking at 100 rpm for 2 h. Drug substances were dissolved in the transport buffer solution (HBSS with 25 mM HEPES, pH 7.4) and placed into a donor compartment. The solution volume in the apical and basolateral compartments was maintained at 2 mL and 4 mL, respectively. The samples (150 µL) from the acceptor compartment were taken at 15 min intervals and were replaced with fresh reheated (37 °C) buffer. The HPLC analysis described below was used to determine the concentration of the compound transported. Transport kinetics and the apparent permeability coefficient (Papp) were calculated according to the protocols described by Tavelin et al. and Hubatsch et al..
Concentrations of all compounds transported were determined by the reverse phase HPLC with UV-VIS detection. HPLC analysis was conducted on Waters UPLC Acquity H-class apparatus with Empower 3.0 software (Waters Corporation, Milford, MA, USA). […] The isocratic flow rate was set as 0.6 mL/min and the detection wavelength on λ = 215 nm.

[8] = conditions of high temperatures and relative humidity; cited from earlier work

Compound: Cn1c(=O)c2c(ncn2C)n(C)c1=O [CAF, caffeine]
Effect of medium pH (6.8 versus 7.4) on permeability across the PermeaPad barrier [1]: no significant difference
Permeability across the PermeaPad barrier by passive diffusion (in words) [1]: highest transport
Permeability across the PermeaPad barrier by passive diffusion (in words) ([1]; listed as Caffeine): high permeable
Papp in the PermeaPad barrier [2]: 24 ×10⁻⁶ cm/s

pKa [3]: 4.1
Papp at 4 h ([1]; not told, both 0.2 mg/mL and 0.125 mg/mL, read-out: Papp through the PermeaPad membrane, bound stated for both concentrations): > 10 ×10⁻⁶ cm/s
Permeability across the PermeaPad barrier by passive diffusion (in words) [1]: relatively high and high
Compound: CCN(CC)CCOC(=O)C(Cc1cccc2ccccc12)CC1CCCO1 (stereo not shown) [NF, Naftidrofuryl oxalate]
Effect of medium pH (6.8 versus 7.4) on permeability across the PermeaPad barrier [1]: slightly lower permeability of NF in medium at pH 7.4
Papp through the Caco-2 monolayer (Caco-2 monolayer [4]; 0.125 mg/mL): 84.1 ×10⁻⁶ cm/s
Papp through the Caco-2 monolayer (Caco-2 monolayer [4]; 0.2 mg/mL): 78.8 ×10⁻⁶ cm/s

Compound: CCC[C@H](N[C@@H](C)C(=O)N1[C@H](C(=O)O)C[C@@H]2CCCC[C@@H]21)C(=O)OCC.N=C(N)NCCC[C@H](N)C(=O)O [PA, Perindopril arginine]
Interaction with the intestinal peptide transporter PEPT1 (PEPT1): relatively poor interaction
pKa (strongest acid) [3]: 3.17
pKa (strongest base) [3]: 5.67
logP ([3]; two values printed per compound without explanation): 0.65 and 0.56
Cytotoxicity to the Caco-2 cell line (MTT) (Caco-2 cells): not cytotoxic; also recorded: No effect
Papp on the Permeapad membrane ([1]; 1.0 mg/mL): 35.7 ×10⁻⁶ cm/s
Papp on the Permeapad membrane ([1]; 2.0 mg/mL): 43.9 ×10⁻⁶ cm/s
Effect of medium pH (6.8 versus 7.4) on permeability across the PermeaPad barrier [1]: did not affect; also recorded: no significant differences
Permeability across the PermeaPad barrier by passive diffusion (in words) [1]: lowest permeability; also recorded: relatively low permeability
Permeability (BCS characterisation) [5]: low permeability
Permeability (characterisation) [5]: low permeability
Time to peak plasma concentrations (absorption completed) ([6]; after oral administration): approximately 1 h
Absolute oral bioavailability [6]: 75%
Interaction with the intestinal peptide transporter PEPT2 (PEPT2): relatively poor interaction
Compound Permeability (Caco-2 monolayer) (Caco-2 monolayer [7]; 1.0 mg/mL): low (when Papp is lower than 1 × 10^−6 cm/s, the substance is considered poorly permeable)
Papp across Caco-2 monolayer (Caco-2 monolayer [7]; 1.0 mg/mL): 0.72 ± 0.04 × 10^−6 cm/s
Papp across Caco-2 monolayer (Caco-2 monolayer [7]; 2.0 mg/mL): 1.94 ± 0.96 × 10^−6 cm/s
Shelf life and stability of the arginine salt compared with the erbumine salt [8]: greater shelf life and stability

Compound: CCC[C@H](N[C@@H](C)C(=O)N1[C@H](C(=O)O)C[C@@H]2CCCC[C@@H]21)C(=O)O [Perindoprilat, perindoprilat]
Average bioavailability of the active metabolite ([6]; after oral PA): about 25%
Mean half-life [6]: 5 to 11 h

Compound: CCC[C@H](N[C@@H](C)C(=O)N1[C@H](C(=O)O)C[C@@H]2CCCC[C@@H]21)C(=O)OCC [perindopril]
Fraction metabolized into perindoprilat during the first pass of the liver ([6]; oral administration, no ref printed with the sentence): 30–50%
